What was measured:
[1] = Mouse study of distribution in the body; assay type: in vivo, mice C57/Black 6J
Procedure: (§1) All the mice are the species C57/Black 6J provided by Charles River Laboratories (France) and about 8 weeks old.
(§2) The volume administered to each mouse is defined as […] and is administered once intravenously by means of a suitable syringe and needle.
At the prescribed time the mice are sacrificed, ground material from the organs is extracted and the concentration therein is analyzed by HPLC-MS assays.

NMDA receptors [2] = test system: T1, NMDA receptors; assay: Displacement of tritiated MK-801 from cerebral cortex membrane homogenate (first experiment); assay type: binding; conditions: for IC50: R0 MK-801, 2 hours at 37° C.
T1 construct: Emission ratio 1st test (%); other: R0 MK-801; [R1]; 1 · 10^−5 Mol/l; first test; Emission ratio 1st test (%); 1 · 10^−6 Mol/l; 1 · 10^−7 Mol/l; 1 · 10^−8 Mol/l; Emission ratio 1
From the text: (§3) In this example, the affinity of fluoroethyl normemantine for NMDA receptors will be compared with that of glutamate (Glu) and of the product Dizocilpine (called “MK-801”), which are known NMDA receptor […] (see Neuroscience Letters, Vol. 80 (1), p. 111-114). MK-801 binds to two different sites in rat brain (Brain Res. 378, p. 133).
To that end, a material containing NMDA receptors will first be immersed in a solution containing labeled MK-801 (first experiment) or glutamate (second experiment) and then these materials are incubated in solutions containing fluoroethyl normemantine at various concentrations. Next, the radioactive emissions before and after this second incubation are compared. Lower emissions mean that fluoroethyl normemantine has a stronger affinity for NMDA receptors than that of the references and that NMDA receptors are inhibited thereby.
By means of these measurements, a correlation can be established between the concentration of the compound IE and NMDA receptor inhibition. The magnitude of the half-maximal inhibitory concentration (IC50) is deduced therefrom.
As the product to be tested (product R1), either memantine or compound I is used. The experimental protocol is as follows: a homogenate of cerebral cortex membrane (140 μg of proteins) is prepared and then incubated for 2 hours at 37° C. with 10 nM […] (tritiated MK-801) in the absence or presence of compound R1 (in buffer containing 5 mM HEPES/Tris (pH=7.4) and 0.1 mM ethyleneglycol tetraacetic acid). The comparison is made with an incubation of […] MK-801. The samples are quickly filtered under vacuum through glass-fiber filters and rinsed with 50 mM iced Tris-HCl. The filters are dried and their radioactivity is counted on a scintillation counter. The concentration of compound R1 varies, and by comparing for each concentration the difference in emission between the control filter (MK-801 alone) and the MK-801/R1 mixture filter, the ratio of inhibition of compound R1 for each concentration is obtained.

NMDA receptors [3] = test system: T2, NMDA receptors; assay: Displacement of tritiated glutamate from cerebral cortex membrane homogenate (second experiment); assay type: binding; conditions: R0 Glu
T2 construct: Emission ratio 1st test (%); other: R0 Glu; [R1]; 1 · 10^−6 M; first test; Emission ratio 1st test (%); 1 · 10^−7 M; 1 · 10^−8 M; 1 · 10^−9 M
From the text: as §3
To that end, a material containing NMDA receptors will first be immersed in a solution containing labeled MK-801 (first experiment) or glutamate (second experiment) and then these materials are incubated in solutions containing fluoroethyl normemantine at various concentrations. Next, the radioactive emissions before and after this second incubation are compared. Lower emissions mean that fluoroethyl normemantine has a stronger affinity for NMDA receptors than that of the references and that NMDA receptors are inhibited thereby. […]
The experimental protocol is much the same as in the first experiment: a homogenate of cerebral cortex membrane (140 μg of protein) is prepared and then incubated for 1 hour at 4° C. with 5 nM tritiated glutamate (tritiated Glu) in the absence or presence of fluoroethyl normemantine (in buffer containing 5 mM Tris-HCl (pH=7.7) and 10 mM ethyleneglycol tetraacetic acid). […] The filters are dried and their radioactivity is counted on a scintillation counter. […]

[4] = Toxicity after a single intravenous administration in mice; assay type: in vivo, mice C57/Black 6J; conditions: male mice, single 0.125 μg/kg intravenously
Procedure: as §1, §2

Solubility in water = assay type: physicochemical
[5] = Lipophilicity log(P), n-octanol / pH 7.4 buffer, HPLC; assay type: physicochemical; conditions: 50/50 by volume pH 7.4 buffer solution and octanol
From the text: Lipophilicity: determined by log(P)=log([I]n-octanol/[I]water), by placing the compound (I) in a 50/50 mixture by volume of pH 7.4 buffer solution and octanol, separating the phases, then assaying by means of HPLC the level of the compound (I) present in each of said phases.

[6] = mice, 0.125 μg/kg intravenously, sacrifice at 3 minutes

NC12CC3CC(C1)CC(CCF)(C3)C2 [Fluoroethyl normemantine]
affinity for the brain (share in brain), comparison with prior art ([1]; comparison sentence of b89, time not restated): 12%
affinity, order of magnitude (NMDA receptors [2]; R0 MK-801): ~10^−6 M
displacement of MK-801 (NMDA receptors [2]; R0 MK-801): displaces MK-801
IC50 (NMDA receptors [2]): 6.1 µM
ability to displace Glu (NMDA receptors [3]): unable to displace Glu
IC50 (NMDA receptors [3]; 1 hour at 4° C.): cannot be measured

CC12CC3CC(C)(C1)CC(N)(C3)C2 [Memantine]
affinity, order of magnitude (NMDA receptors [2]; R0 MK-801): ~10^−6 M
IC50 (NMDA receptors [2]): 1.1 µM
Mean (emission ratio) (NMDA receptors [2]; R0 MK-801, [R1] 1 · 10^−5 Mol/l): 10.8%
Mean (emission ratio) (NMDA receptors [2]; R0 MK-801, [R1] 1 · 10^−6 Mol/l): 52.3%
Mean (emission ratio) (NMDA receptors [2]; R0 MK-801, [R1] 1 · 10^−7 Mol/l): 88.8%
Mean (emission ratio) (NMDA receptors [2]; R0 MK-801, [R1] 1 · 10^−8 Mol/l): 101.4%
Mean (emission ratio) (NMDA receptors [2]; R0 MK-801, [R1] 1 · 10^−9 Mol/l): 96.9%
Mean (emission ratio) (NMDA receptors [2]; R0 MK-801, [R1] 3 · 10^−6 Mol/l): 29.0%
Mean (emission ratio) (NMDA receptors [2]; R0 MK-801, [R1] 3 · 10^−7 Mol/l): 73.1%
Mean (emission ratio) (NMDA receptors [2]; R0 MK-801, [R1] 3 · 10^−8 Mol/l): 97.5%
Mean (emission ratio) (NMDA receptors [2]; R0 MK-801, [R1] 3 · 10^−9 Mol/l): 103.3%

NC12CC3CC(C1)CC(CCF)(C3)C2 [^18F-fluoroethyl normemantine]
toxicity (conclusion) [4]: not toxic at the doses tested
solubility (Solubility in water): > 100 mM
Brain: % of the injected dose [1, 6]: 12 % of the injected dose
Kidneys: share of injected dose [1, 6]: 18%
Liver: share of injected dose [1, 6]: 20%

NC12CC3CC(C1)CC(CCF)(C3)C2 [compound (I)]
log(P) [5]: 3.1 (±0.5)
